≈ marks a conversion by molar mass, not a printed value.
Key:
[1] = test system: Influenza A H5N1 VN/1203/2004 Hybrid (on H1N1 backbone); assay type: cell-based
[2] = test system: Influenza A H1N1 CA/04/2009 (Pandemic H1N1); assay type: cell-based
[3] = test system: H3N2 virus (A/Victoria/3/75); design: species or system Balb/C mice; details: mouse, in vivo, po
West Nile [4] = assay type: cell-based, West Nile virus
in vitro [5] = details: African green monkey
Influenza B Florida [6] = assay type: cell-based
Influenza B Florida [7] = assay: microbe, parasite or virus in culture; assay type: cell-based
Parainfluenza 3 14702 [8] = assay type: cell-based, Parainfluenza virus type 3
Dengue 2 New Guinea C [9] = assay type: cell-based, Dengue virus 2
Pichinde [10] = assay type: cell-based
Rift Valley Fever MP-12 [11] = assay type: cell-based, Rift Valley fever virus
West Nile [12] = assay type: cell-based, West Nile virus; remark: listed apart in the source
in vitro [13] = details: African green monkey, Visual CPE Assay
Dengue 2 New Guinea C [14] = assay type: cell-based, Dengue virus 2; remark: listed apart in the source
Punta Toro A2 [15] = assay type: cell-based, Punta Toro virus
in vitro [16] = details: human
in vitro [17] = details: human; remark: listed apart in the source
in vitro [18] = details: human; remark: listed apart in the source
[19] = test system: Measles virus (MV), strain Chicago; assay: Neutral Red Uptake Assay; assay type: cell-based; details: Vero 76 cells
Respiratory Syncytial A2 [20] = assay type: cell-based, Respiratory syncytial virus
SARS-CoV Urbani [21] = assay type: cell-based, SARS corona virus
[22] = test system: Adenovirus type 165089/Chicago; assay type: cell-based, Adenovirus (AV-1) type 1
SARS-CoV Urbani [23] = assay type: cell-based, SARS corona virus; remark: listed apart in the source
[24] = test system: Influenza A H3N2 Brisbane/10/2007; assay type: cell-based
[25] = test system: Marburg, Junin Candid 1, Pichinde, Chikungunya 181/25 and Vaccinia NYCBH; assay: organism not typed; assay type: cell-based; details: read-out: EC50 values, range over several viruses
[26] = test system: Venezuelan Equine Encephalitis TC83; assay type: cell-based, Venezuelan equine encephalitis virus
in vitro [27] = details: human; remark: listed apart in the source
Junin Candid 1 [28] = assay type: cell-based, Junin virus
[29] = test system: Influenza A H3N2 Brisbane/10/2007; assay type: cell-based; remark: listed apart in the source
Rift Valley Fever MP-12 [30] = assay type: cell-based, Rift Valley fever virus; remark: listed apart in the source
[31] = test system: Venezuelan Equine Encephalitis TC83; assay type: cell-based, Venezuelan equine encephalitis virus; remark: listed apart in the source
MA-104 cells [32] = details: African green monkey
[33] = test system: Influenza A H1N1 CA/04/2009 (Pandemic H1N1); assay type: cell-based; remark: listed apart in the source
[34] = test system: Influenza A H5N1 VN/1203/2004 Hybrid (on H1N1 backbone); assay type: cell-based; remark: listed apart in the source
MA-104 cells [35] = details: African green monkey; remark: listed apart in the source
Punta Toro A2 [36] = assay type: cell-based, Punta Toro virus; remark: listed apart in the source
Tacaribe TRVL 11573 [37] = assay type: cell-based
Rhinovirus 2 HGP [38] = assay type: cell-based
Yellow Fever 17D [39] = assay type: cell-based, Yellow fever virus
[40] = test system: Measles virus (MV), strain Chicago; assay: Visual CPE Assay; assay type: cell-based; details: Vero 76 cells
Yellow Fever 17D [41] = assay type: cell-based, Yellow fever virus; remark: listed apart in the source
[42] = test system: Adenovirus type 165089/Chicago; assay type: cell-based, Adenovirus (AV-1) type 1; remark: listed apart in the source
[43] = test system: Measles virus (MV), strain Chicago; assay: Virus Yield Reduction Assay; assay type: cell-based; details: Vero-76 cells, one log 10 drop in virus produced
Parainfluenza 3 14702 [44] = assay type: cell-based, Parainfluenza virus type 3; remark: listed apart in the source
Rhinovirus 2 HGP [45] = assay type: cell-based; remark: listed apart in the source
Respiratory Syncytial A2 [46] = assay type: cell-based, Respiratory syncytial virus; remark: listed apart in the source
Tacaribe TRVL 11573 [47] = assay type: cell-based; remark: listed apart in the source
Junin Candid 1 [48] = assay type: cell-based, Junin virus; remark: listed apart in the source
[49] = test system: Yellow fever virus (Jimenez strain); design: species or system Syrian golden hamsters; details: hamster, in vivo
Pichinde [50] = assay type: cell-based; remark: listed apart in the source

Nc1ncnc2c([C@@H]3N[C@H](CO)[C@@H](O)[C@H]3O)c[nH]c12 [Compound 1, (2S,3S,4R,5R)-2-(4-Amino-5H-pyrrolo[3,2-d]pyrimidin-7-yl)-5-(hydroxymethyl) pyrrolidine-3,4-diol]
SI Visual CPE Assay [1]: >1600 | SI Visual CPE Assay [2]: 120 | Mean weight change (grams ± SEM) Day 9 [3]: 0.01 ± 0.27 grams | SI Neutral Red Uptake Assay (West Nile [4]): 2.8 | CC50 (in vitro [5]): 52 µg/mL (≈ 196 µM) | SI Visual CPE Assay (Influenza B Florida [6]): 290 | SI Neutral Red Uptake Assay (Influenza B Florida [7]): 38 | EC50 (Influenza B Florida [7]; Influenza B virus): 1.8 µg/mL (≈ 6.79 µM) | SI Neutral Red Uptake Assay (Parainfluenza 3 14702 [8]): 52 | SI Visual CPE Assay (Dengue 2 New Guinea C [9]): 25 | SI Neutral Red Uptake Assay (Pichinde [10]): 6.7 | SI Visual CPE Assay (Rift Valley Fever MP-12 [11]): 9.1 | SI Visual CPE Assay (West Nile [12]): 0 | CC50 (in vitro [13]): 100 µg/mL (≈ 377 µM) | SI Neutral Red Uptake Assay (Dengue 2 New Guinea C [14]): 26 | SI Neutral Red Uptake Assay (Punta Toro A2 [15]): 0 | CC50 (in vitro [16]): > 100 µg/mL | CC50 (in vitro [17]): > 100 µg/mL | CC50 (in vitro [18]): > 100 µg/mL | SI Neutral Red Uptake Assay [19]: >71 | SI Visual CPE Assay (Respiratory Syncytial A2 [20]): 0 | SI Neutral Red Uptake Assay (SARS-CoV Urbani [21]): >6.3 | SI Neutral Red Uptake Assay [22]: >2.3 | SI Visual CPE Assay (SARS-CoV Urbani [23]): >7.1 | SI Visual CPE Assay [24]: 140 | EC50 [25]: ≥ 10 µg/mL | SI Neutral Red Uptake Assay [26]: 1.2 | CC50 (in vitro [27]): > 100 µg/mL | SI Visual CPE Assay (Junin Candid 1 [28]): >17 | SI Neutral Red Uptake Assay [29]: 79 | SI Neutral Red Uptake Assay (Rift Valley Fever MP-12 [30]): 6.6 | SI Visual CPE Assay [31]: 2.2 | IC50 Neutral Red Uptake Assay (MA-104 cells [32]): >100 µg/mL | SI Neutral Red Uptake Assay [33]: 120 | SI Neutral Red Uptake Assay [34]: 130 | IC50 Visual CPE Assay (MA-104 cells [35]): >100 µg/mL | SI Visual CPE Assay (Punta Toro A2 [36]): >1.6 | SI Visual CPE Assay (Tacaribe TRVL 11573 [37]): 4.2 | SI Neutral Red Uptake Assay (Rhinovirus 2 HGP [38]): >1.8 | SI Visual CPE Assay (Yellow Fever 17D [39]): 43 | SI Visual CPE Assay [40]: >180 | SI Neutral Red Uptake Assay (Yellow Fever 17D [41]): 38 | SI Visual CPE Assay [42]: >2.6 | EC90 virus yield reduction [43]: 0.37 µg/mL (≈ 1.39 µM) | SI Visual CPE Assay (Parainfluenza 3 14702 [44]): 7.1 | SI Visual CPE Assay (Rhinovirus 2 HGP [45]): >1.8 | SI Neutral Red Uptake Assay (Respiratory Syncytial A2 [46]): 0 | SI Neutral Red Uptake Assay (Tacaribe TRVL 11573 [47]): 2 | SI Neutral Red Uptake Assay (Junin Candid 1 [48]): 14 | weight change [49]: weight gain over placebo and ribavirin administered pre-infection | SI Visual CPE Assay (Pichinde [50]): >8.2
